Measured values as given in ChEMBL document CHEMBL3868609, “[2.2.1]-Bicyclic sultams as potent androgen receptor antagonists” (Bioorg Med Chem Lett, 2016).
Active and inactive are the calls of the source. The calls are words filed in the database; no cut-off is given here.

Key:
[1] = target: T1, Androgen receptor (Homo sapiens, UniProt P10275); experiment: Antagonist activity at androgen receptor in human MDA-MB-453 cells assessed as inhibition of testosterone-induced transactivation; format: cell-based
T1 sequence (P10275 whole entry): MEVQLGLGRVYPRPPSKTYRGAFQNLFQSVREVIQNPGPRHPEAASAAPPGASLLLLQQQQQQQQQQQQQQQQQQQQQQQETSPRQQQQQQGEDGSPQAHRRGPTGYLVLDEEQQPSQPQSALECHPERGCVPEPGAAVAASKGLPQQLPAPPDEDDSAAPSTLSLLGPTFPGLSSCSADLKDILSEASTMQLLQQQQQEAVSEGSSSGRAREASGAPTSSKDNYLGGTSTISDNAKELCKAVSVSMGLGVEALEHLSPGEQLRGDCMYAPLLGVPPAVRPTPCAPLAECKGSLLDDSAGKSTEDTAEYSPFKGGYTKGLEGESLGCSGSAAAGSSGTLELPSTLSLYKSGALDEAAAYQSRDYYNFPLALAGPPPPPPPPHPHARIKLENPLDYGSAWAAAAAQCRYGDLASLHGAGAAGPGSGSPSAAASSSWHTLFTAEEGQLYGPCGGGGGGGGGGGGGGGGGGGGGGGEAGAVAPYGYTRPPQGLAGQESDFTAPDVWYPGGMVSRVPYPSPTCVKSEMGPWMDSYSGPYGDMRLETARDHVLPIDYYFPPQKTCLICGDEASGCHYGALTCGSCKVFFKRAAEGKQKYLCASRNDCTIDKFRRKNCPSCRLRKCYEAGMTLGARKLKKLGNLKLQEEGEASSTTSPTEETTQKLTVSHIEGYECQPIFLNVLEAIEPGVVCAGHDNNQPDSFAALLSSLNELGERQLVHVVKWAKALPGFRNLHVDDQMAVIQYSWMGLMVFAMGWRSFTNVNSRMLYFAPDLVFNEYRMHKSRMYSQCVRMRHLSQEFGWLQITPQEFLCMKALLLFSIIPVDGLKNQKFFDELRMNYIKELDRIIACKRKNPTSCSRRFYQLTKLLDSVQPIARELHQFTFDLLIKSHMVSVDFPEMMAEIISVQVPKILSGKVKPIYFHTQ

[2] = system: Rattus norvegicus; experiment: In vivo antagonist activity at androgen receptor in immature rat prostate weight model assessed as testosterone propionate-induced weight of seminal vesicles over full body weight at 30 mg/kg, po qd administered for 4 days relative to testosterone propionate treated control; format: functional; set-up: scale not given: the % may be the effect or the level left
[3] = target: T1, Androgen receptor; experiment: Displacement of [3H]DHT from androgen receptor in human MDA-MB-453 cells; format: cell-based
[4] = Plasma concentration in immature rat prostate weight model at 30 mg/kg, po qd administered for 4 days measured 2 hrs post last dose on day 4; format: ADME, organism-based
[5] = AUC (0 to 24 hrs) in BALB/c athymic mouse xenografted with bicalutamide-resistant human CWR22-BMSLD1 cells at 78 mg/kg, po; format: ADME, organism-based; set-up: time < 24 hr, dose 78 mg/kg, route oral; settings: in vivo
[6] = system: Rattus norvegicus; experiment: In vivo antagonist activity at androgen receptor in immature rat prostate weight model assessed as testosterone propionate-induced weight of seminal vesicles over full body weight at 15 mg/kg, po qd administered for 4 days relative to testosterone propionate treated control; format: functional; set-up: scale not given: the % may be the effect or the level left
[7] = Plasma concentration in immature rat prostate weight model at 15 mg/kg, po qd administered for 4 days measured 2 hrs post last dose on day 4; format: ADME, organism-based
[8] = Antitumor activity against bicalutamide-resistant human CWR22-BMSLD1 cells xenografted in BALB/c athymic mouse assessed as tumor growth inhibition at 150 mg/kg, po qd for 20 days measured on last day of dosing relative to control; format: functional; settings: 480 h, read-out: TGI
[9] = system: CWR22-BMSLD1; experiment: Antitumor activity against bicalutamide-resistant human CWR22-BMSLD1 cells xenografted in BALB/c athymic mouse assessed as tumor stasis at 150 mg/kg, po qd for 20 days; format: functional, organism-based
[10] = system: Rattus norvegicus; experiment: In vivo antagonist activity at androgen receptor in immature rat prostate weight model assessed as testosterone propionate-induced weight of seminal vesicles over full body weight at 25 mg/kg, po qd administered for 4 days relative to testosterone propionate treated control; format: functional; set-up: scale not given: the % may be the effect or the level left
[11] = system: Mus musculus; experiment: Toxicity in BALB/c athymic mouse xenografted with bicalutamide-resistant human CWR22-BMSLD1 cells at 150 mg/kg, po qd for 20 days; format: organism-based; settings: in vivo, 480 h
[12] = Drug metabolism in mouse liver microsomes assessed as oxidative metabolite formation; format: ADME
[13] = Plasma concentration in immature rat prostate weight model at 25 mg/kg, po qd administered for 4 days measured 2 hrs post last dose on day 4; format: ADME, organism-based
[14] = Plasma concentration in immature rat prostate weight model at 10 mg/kg, po qd administered for 4 days measured 2 hrs post last dose on day 4; format: ADME, organism-based
[15] = system: Rattus norvegicus; experiment: In vivo antagonist activity at androgen receptor in immature rat prostate weight model assessed as testosterone propionate-induced weight of seminal vesicles over full body weight at 10 mg/kg, po qd administered for 4 days relative to testosterone propionate treated control; format: functional; set-up: scale not given: the % may be the effect or the level left

Compound	IC50 [1] [nM]	Ki [3] [nM]	AUC(0-t) at 24 h [5] [µM·h]	other results
C[C@@]12[C@@H](CN(c3ccc(C#N)c(C(F)(F)F)c3)S1(=O)=O)[C@H]1C[C@H](O)[C@@H]2C1	106	3	> 2	Activity [2]: 60%; concentration at 2 h [4]: 790 nM
C[C@@]12[C@@H]3CC[C@@H](C3O)[C@@H]1CN(c1ccc(C#N)c(C(F)(F)F)c1)S2(=O)=O (stereo in doubt; 15)	444	106		
N#Cc1ccc(N2C[C@H]3[C@H]4CC[C@H](C4)[C@@]3(C(N)=O)S2(=O)=O)cc1C(F)(F)F	55	3	> 2	Activity [6]: 55%
CNC(=O)[C@@]12[C@@H](CN(c3ccc(C#N)c(C(F)(F)F)c3)S1(=O)=O)[C@H]1C[C@H](F)[C@@H]2C1	57	5	0.0031	concentration at 2 h [7]: 2900 nM; Activity [6]: 30%
CNC(=O)[C@@]12[C@@H]3CC[C@@H](C3)[C@@H]1CN(c1ccc(C#N)c(C(F)(F)F)c1)S2(=O)=O	44	3	> 2	concentration at 2 h [7]: 7250 nM; Activity [6]: 51%
N#Cc1ccc(N2C[C@H]3[C@H]4CC[C@H](C4)[C@H]3S2(=O)=O)cc1C(F)(F)F	130	3		
C[C@@]12[C@@H]3CC[C@@H](C3)[C@@H]1CN(c1ccc(C#N)c(C(F)(F)F)c1)S2(=O)=O	73	3		
C[C@@]12[C@@H]3C=C[C@@H](C3)[C@@H]1CN(c1ccc(C#N)c(C(F)(F)F)c1)S2(=O)=O	30	2		inhibition in vivo at 150 mg/kg [8]: 87%; Activity [9]: Active; Activity [10]: 35%; Activity [11]: Non-Toxic; Drug metabolism [12]: Metabolite_Detected; concentration at 2 h [13]: 50 nM
C[C@@]12[C@@H](CN(c3ccc(C#N)c(C(F)(F)F)c3)S1(=O)=O)[C@H]1C[C@H](F)[C@@H]2C1	91	8	> 2	concentration at 2 h [7]: 2800 nM; Activity [6]: 65%
N#Cc1ccc(N2C[C@@H]3[C@@H]([C@@H]4C=C[C@H]3C4)S2(=O)=O)cc1C(F)(F)F	219	12		
CCS(=O)(=O)N[C@@H]1C[C@@]2(C)O[C@]1(C)[C@@H]1C(=O)N(c3ccc(C#N)c(C(F)(F)F)c3)C(=O)[C@@H]12				concentration at 2 h [14]: 4000 nM; Activity [15]: 26%
C[C@@]12[C@@H]3CC[C@@H](C3=O)[C@@H]1CN(c1ccc(C#N)c(C(F)(F)F)c1)S2(=O)=O	67	8		
C[C@@]12[C@H]3C[C@H]([C@H](O)C3)[C@@H]1CN(c1ccc(C#N)c(C(F)(F)F)c1)S2(=O)=O	430	28	> 2	Activity [2]: 58%
C[C@@]12[C@@H]3CC[C@@H](C3O)[C@@H]1CN(c1ccc(C#N)c(C(F)(F)F)c1)S2(=O)=O (stereo in doubt; 17)	327	48		
CC(O)(CS(=O)(=O)c1ccc(F)cc1)C(=O)Nc1ccc(C#N)c(C(F)(F)F)c1 (centres undefined) [BICALUTAMIDE]				inhibition in vivo at 150 mg/kg [8]: 39%; concentration at 2 h [14]: 9500 nM; Activity [11]: Non-Toxic; Activity [15]: 41%
